In US4230703A, “11-Oxodibenz(b,e)azepines” (priority 1977, dated 1980):

Tests used:
[1] = system: number of writhings (0.6% acetic acid, intraperitoneal); assay: Test on analgesic activity (acetic acid-induced writhing); format: in vivo, mice (ddY, male); conditions: Mus musculus, po, mice; parentheses = 95% confidence limits
Experimental: Male mice (ddY) with a body weight of 18 to 22 g were used in groups each consisting of 10 mice. Each of the compounds was suspended in an aqueous solution of 0.5% of carboxymethyl cellulose and 2.0% of Tween 80, and the resulting suspension was administered orally to the mice through a tube. One hour after the administration, 0.6% acetic acid was administered intraperitoneally in an amount of 0.1 ml per 10 g of body weight, and the number of writhings which occurred in the mice during a period of 20 minutes after the administration was measured. The percent inhibition on a group administered with the test compound based on the control group administered only with the vehicle was calculated from the following equation, and the ED50 values of the test compounds were calculated from the percent inhibition in accordance with the method of Litchfield-Wilcoxon. [formula]
The parenthesized numerals show 95% confidence limits.

[2] = system: volume of edema of left hind paw (carrageenin); assay: Test on anti-inflammatory activity (carrageenin hind paw edema); format: in vivo, Wistar male rats; conditions: Rattus norvegicus, po, 3 h, p.o., read-out: Percent inhibition (average value ± standard error)
Experimental: In each group, the volumes of the left hind paw were measured by a volume differential meter (made by Ugo Basile Company), and 0.1 ml of a 1% suspension of carrageenin in distilled water was subcutaneously injected into the plantar tissues of the left hind paw. One hour later, each of the test compounds was suspended in the same vehicle as used in the test on analgesic activity and administered orally to the rats. Three hours later, the volumes of the left hind paw were again measured. The increase in volume of the left hind paw of each rat in each group (the volume of edema) was measured. The percent edema inhibition on the group administered with the test compounds based on the control group administered only with the vehicle was calculated in accordance with the following equation, and the results are shown in Table 2. [formula]

in vivo = conditions: rat, in vivo, po
Excerpt: (§1) Each of the test compounds was suspended in a physiological saline solution having dissolved therein 2% of Tween 80, and orally administered through a tube to groups of SD male and female rats (male: 130 to 150 g, female: 120 to 140 g) each group consisting of 8 rats. The rats were then observed for 2 weeks.

SD male and female rats = assay: in vivo; conditions: oral
Excerpt: as §1

Compound	ED50 [1] [mg/kg]	inhibition in vivo at 30 mg/kg [2] [%]	inhibition in vivo at 90 mg/kg [2] [%]	other results
CN1Cc2ccccc2C(=O)c2cc(CC(=O)O)ccc21 [A, 5,6-dihydro-5-methyl-11-oxodibenz[b,e]azepine-2-acetic acid]	9	30.4 ± 4.4	43.9 ± 6.6	inhibition in vivo at 10 mg/kg [2]: 28.5 ± 2.8%
CC(C(=O)O)c1ccc2c(c1)C(=O)c1ccccc1CN2C (centres unmarked) [B, 2-(5,6-dihydro-5-methyl-11-oxodibenz[b,e]azepin-2-yl)propionic acid]	26	23.2 ± 3.2	38.6 ± 5.3	
CN1Cc2ccccc2C(=O)c2c(CC(=O)O)cccc21 [C, 5,6-dihydro-5-methyl-11-oxodibenz[b,e]azepine-1-acetic acid]			11.4 ± 12.7	inhibition in vivo at 180 mg/kg ([2]; 180 mg/kg): 28.6 ± 8.3%
CN1Cc2ccccc2C(=O)c2ccc(CC(=O)O)cc21 [Compound D, 5,6-dihydro-5-methyl-11-oxodibenz[b,e]azepine-3-acetic acid]	78	36.4 ± 11.9		inhibition in vivo at 10 mg/kg [2]: 26.8 ± 2.9%
CNC(=O)Cc1ccc2c(c1)C(=O)c1ccccc1CN2C [Compound E, 5,6-dihydro-5-methyl-11-oxodibenz[b,e]azepine-2-acetic acid methyl amide]	46.5	11.3 ± 4.3	44.8 ± 7.5	
COC(=O)Cc1ccc2c(c1)C(=O)c1ccccc1CN2C [F, methyl 5,6-dihydro-5-methyl-11-oxodibenz[b,e]azepine-2-acetate]		11.8 ± 3.4		
CN1Cc2ccccc2C(=O)c2cc(CC(=O)O)cc(Cl)c21 [G, 5,6-dihydro-4-chloro-5-methyl-11-oxodibenz[b,e]azepine-2-acetic acid]		23.8 ± 6.9	35.4 ± 5.5	
CN1Cc2cc(Cl)ccc2C(=O)c2cc(CC(=O)O)ccc21 [H, 5,6-dihydro-5-methyl-8-chloro-11-oxodibenz[b,e]azepine-2-acetic acid]		26.8 ± 7.3	34.9 ± 6.5	
CCN1Cc2ccccc2C(=O)c2cc(CC(=O)O)ccc21 [I, 5,6-dihydro-5-ethyl-11-oxodibenz[b,e]azepine-2-acetic acid]	15.9	25.6 ± 5.8	35.1 ± 8.2	inhibition in vivo at 10 mg/kg [2]: 20.2 ± 6.6%
CCCN1Cc2ccccc2C(=O)c2cc(CC(=O)O)ccc21 [J, 5,6-dihydro-5-n-propyl-11-oxodibenz[b,e]azepine-2-acetic acid]	15.5	18.6 ± 5.2	30.4 ± 4.8	
CN1Cc2ccccc2C(=O)c2cc(CC(=O)OCCO)ccc21 [K, hydroxyethyl 5,6-dihydro-5-methyl-11-oxodibenz[b,e]azepine-2-acetate]		23.5 ± 11.1	30.4 ± 5.5	
CN1Cc2ccccc2C(=O)c2cc(CC(=O)OCC3COC(C)(C)O3)ccc21 (centres unmarked) [L, 2,2-dimethyl-1,3-dioxolan-5-yl methyl 5,6-dihydro-5-methyl-11-oxodibenz[b,e]azepine-2-acetate]		17.6 ± 5.1	33.3 ± 4	
O=C(O)Cc1ccc2c(c1)C(=O)c1ccccc1CN2 [M, 5,6-dihydro-11-oxodibenz[b,e]azepine-2-acetic acid]	5.1	41.2 ± 5.4		inhibition in vivo at 10 mg/kg [2]: 37.3 ± 2.4%; LD50 at 336 h (in vivo; female): 840 mg/kg; LD50 at 336 h (in vivo; male): 810 mg/kg; Minimum lethal dose (SD male and female rats; female): 720 mg/kg; Minimum lethal dose (SD male and female rats; male): 720 mg/kg
CCCCC1C(=O)N(c2ccccc2)N(c2ccccc2)C1=O [Phenylbutazone, phenylbutazone, reference compound]	130	20.7 ± 2.4	34.2 ± 5.3	
